In article PMC5069162 (Anesthesiology, 2016):
Several values for one entry are separate records, joined by “and”; a condition that tells them apart may be missing. Equal values may be shown once. Read-outs that look alike come from different tables or passages of the source.

Columns and labels:
11β-hydroxylase [1] = molecular target: T1, 11β-hydroxylase (Rattus norvegicus, UniProt P15393); format: binding; settings: for Hill coefficient for inhibition of specific 3H-etomidate binding / IC50: 2 nM 3H-etomidate; for Hill coefficient for inhibition of specific 3H-etomidate binding: equation 2; for IC50: 0.07 mg/ml protein; for IC50 higher than that of etomidate: ratio of IC50s for 3H-etomidate binding
T1 sequence (P15393 25-499): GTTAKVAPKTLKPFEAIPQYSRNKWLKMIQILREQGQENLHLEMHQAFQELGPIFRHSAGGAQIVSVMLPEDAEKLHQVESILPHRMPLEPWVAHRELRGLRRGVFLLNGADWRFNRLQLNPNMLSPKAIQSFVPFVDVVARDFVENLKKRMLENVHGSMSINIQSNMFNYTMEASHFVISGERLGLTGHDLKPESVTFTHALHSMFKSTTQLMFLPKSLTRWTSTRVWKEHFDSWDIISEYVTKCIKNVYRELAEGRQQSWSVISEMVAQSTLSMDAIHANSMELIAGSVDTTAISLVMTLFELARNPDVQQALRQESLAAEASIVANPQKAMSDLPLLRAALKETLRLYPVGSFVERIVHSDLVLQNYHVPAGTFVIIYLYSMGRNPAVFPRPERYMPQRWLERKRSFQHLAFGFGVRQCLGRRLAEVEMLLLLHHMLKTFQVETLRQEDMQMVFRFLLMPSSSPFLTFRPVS

[2] = after 2-hr infusion of parent drug in dogs; cited from earlier work
11β-hydroxylase [3] = settings: estimated by Zolle et al.; cited from earlier work
11β-hydroxylase [4] = molecular target: T1, 11β-hydroxylase; format: binding
rats = settings: in rats; cited from earlier work
rat adrenocortical cells = settings: read-out: IC50 for inhibiting corticosterone synthesis; cited from earlier work
[5] = test system: H295R adrenocortical cells; settings: cited from earlier work
[6] = read-out: half-inhibitory concentration (IC50) for specific 3H-etomidate binding
[7] = half-inhibitory concentration (IC50) for specific 3H-etomidate binding

| Molecule | Hill coefficient for inhibition of specific 3H-etomidate binding (11β-hydroxylase [1]) | IC50 (11β-hydroxylase [1]; [6]) | IC50 (11β-hydroxylase [1]; [7]) | other results |
| --- | --- | --- | --- | --- |
| C[C@H](c1ccccc1)n1cncc1C(=O)O [etomidate-CA] | −0.32 | 1100 µM |  | maximal metabolite concentration [2]: 1680 ng/ml and 7.8 μM |
| CNC1(c2ccccc2Cl)CCCCC1=O (centres unmarked) [ketamine, reference compound] | −0.23 |  | ≥ 50 µM and 79 µM |  |
| COC(=O)c1cncn1C(C)c1ccc(I)cc1 (centres unmarked) |  |  |  | Kd (11β-hydroxylase [3]): 0.0116 ± 0.0025 µM |
| CC(C)c1cccc(C(C)C)c1O [propofol, reference compound] |  |  | > 100 µM |  |
| CCOC(=O)c1cncn1[C@H](C)c1ccccc1 [etomidate, reference compound] | −0.82 |  |  | Kd (11β-hydroxylase [4]): 0.021 µM; maximum concentration of binding sites (Bmax), homologous competition (11β-hydroxylase [4]; 2 nM 3H-etomidate vs cold etomidate, equation 1): 11,700 CPM; hypnotic potency (rats): 0.53 ± 0.17 mg/kg |
| Cc1cccc([C@H](C)c2cnc[nH]2)c1C [dexmedetomidine, reference compound] | −0.33 |  | 2.2 µM | IC50 (rat adrenocortical cells): 1 µM |
| CCOC(=O)c1cccn1[C@H](C)c1ccccc1 [carboetomidate] | −0.27 | ≥ 50 µM and 50 µM |  | IC50 higher than that of etomidate (11β-hydroxylase [1]): 1900 fold; IC50 for suppressing in vitro cortisol synthesis higher than etomidate ([5]; H295R adrenocortical cells): 2000 fold; potency at inhibiting cortisol synthesis relative to etomidate ([5]; adrenocortical cell line): three orders of magnitude less potent than etomidate |
| cyclopropyl methoxycarbonyl metomidate [CPMM] | −0.55 | 0.143 µM |  | IC50 higher than that of etomidate (11β-hydroxylase [1]): 5.5 fold; hypnotic potency (rats): 0.69 ± 0.04 mg/kg |
